Paper PMC2588526 (Nucleic Acids Research, 2008)

What was measured:
GlTgs = molecular target: T1, GlTgs (Giardia duodenalis, UniProt A8BW33); test: 3H methyl transfer, PEI-cellulose TLC; format: biochemical; conditions: 0.1 mM m7GDP, 5 μM [methyl-3H]AdoMet, 37 °C; single methylation to DMG
T1 sequence (A8BW33 1-258): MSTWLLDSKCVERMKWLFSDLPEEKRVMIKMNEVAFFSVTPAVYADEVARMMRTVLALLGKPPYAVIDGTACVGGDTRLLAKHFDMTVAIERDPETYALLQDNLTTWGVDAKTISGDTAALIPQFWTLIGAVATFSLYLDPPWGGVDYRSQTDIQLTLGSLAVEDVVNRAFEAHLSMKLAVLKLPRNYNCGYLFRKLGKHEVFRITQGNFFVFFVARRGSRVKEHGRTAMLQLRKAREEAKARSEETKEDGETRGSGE

TvTgs = molecular target: T2, TvTgs (Trichomonas vaginalis, UniProt A2DM16); test: radiometric 3H methyl transfer, DEAE filter; format: biochemical
T2 sequence (A2DM16 1-280): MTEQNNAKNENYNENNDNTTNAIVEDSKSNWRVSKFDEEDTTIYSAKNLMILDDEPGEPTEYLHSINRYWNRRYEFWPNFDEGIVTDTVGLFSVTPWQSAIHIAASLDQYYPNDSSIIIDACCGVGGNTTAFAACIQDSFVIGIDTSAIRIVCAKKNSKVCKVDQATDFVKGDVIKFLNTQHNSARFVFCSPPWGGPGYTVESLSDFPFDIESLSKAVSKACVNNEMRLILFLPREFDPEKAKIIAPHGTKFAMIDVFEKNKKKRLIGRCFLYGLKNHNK

[1] = substrate: C[n+]1cn([C@@H]2O[C@H](COP(=O)(O)OP(=O)(O)OP(=O)(O)O)[C@@H](O)[C@H]2O)c2nc(N)[nH]c(=O)c21; test: radiometric 3H methyl transfer, DEAE filter; format: biochemical, Trichomonas vaginalis; conditions: [methyl-3H]AdoMet co-substrate, pH 7.5, 37 °C
[2] = substrate: C[n+]1cn([C@@H]2O[C@H](COP(=O)(O)OP(=O)(O)O)[C@@H](O)[C@H]2O)c2nc(N)[nH]c(=O)c21; test: radiometric 3H methyl transfer, DEAE filter; format: biochemical, Trichomonas vaginalis; conditions: [methyl-3H]AdoMet co-substrate, pH 7.5, 37 °C

C[n+]1cn([C@@H]2O[C@H](COP(=O)(O)OP(=O)(O)O)[C@@H](O)[C@H]2O)c2nc(N)[nH]c(=O)c21 [m^7GDP]
3H methyl transfer, PEI-cellulose TLC (GlTgs): TvTgs (Tv), GlTgs (Gl) and SpTgs (Sp) were compared side by side

Nc1ncnc2c1ncn2[C@@H]1O[C@H](CSCC[C@H](N)C(=O)O)[C@@H](O)[C@H]1O [AdoHcy]
IC50 (TvTgs): ~250 µM

B1: TvTgs (Trichomonas vaginalis G3) (protein)
chain: T2 sequence (A2DM16 1-280)
Km [1]: 1.59 +/– 0.205 mM
Km [2]: 250 +/– 30.7 μM
